# In US20230124862A1, “BISMUTH THIOL COMPOUNDS AND COMPOSITIONS AND METHODS OF TREATING MICROBIAL CO-INFECTIONS” (Microbion Corporation, priority 2020, published 2023):
# Legend:
# Assay in all cases: Antifungal broth microdilution (Example 13)
# [1] = test system: Candida albicans; assay type: cell-based; conditions: 24 hr; for MIC0: complete inhibition; for MIC2: 50% inhibition
# [2] = test system: Candida glabrata; assay type: cell-based; conditions: for MIC0: complete inhibition; for MIC2: 50% inhibition
# [3] = test system: Candida krusei; assay type: cell-based; conditions: for MIC0: complete inhibition; for MIC2: 50% inhibition
# [4] = test system: Candida auris; assay type: cell-based; conditions: for MIC0: complete inhibition; for MIC2: 50% inhibition
# [5] = test system: Aspergillus spp.; assay type: cell-based, A. niger, A. terreus, A. fumigatus, A. flavus; conditions: complete inhibition, comparator, time not stated
# [6] = C. albicans ATCC 90028, Susceptible
# [7] = C. albicans ATCC 204276, MICA-R
# [8] = C. albicans ATCC MYA-2732, FLU-R, VORI-I
# [9] = C. albicans MMX 7053, Susceptible
# [10] = C. albicans MMX 7067, FLU-R, VORI-R
# [11] = C. albicans MMX 7403, Susceptible
# [12] = C. albicans MMX 7424, CASP-R, MICA-R
# [13] = C. albicans MMX 7430, Susceptible
# [14] = C. albicans MMX 7445, FLU-R, VORI-R
# [15] = C. glabrata ATCC 90030, Susceptible
# [16] = C. glabrata ATCC MYA-2950, Susceptible
# [17] = C. glabrata MMX 7087, Susceptible
# [18] = C. glabrata MMX 7103, CASP-R, MICA-R
# [19] = C. glabrata MMX 7111, Susceptible
# [20] = C. glabrata MMX 7285, CASP-R, MICA-R
# [21] = C. glabrata MMX 7307, CASP-R, MICA-R, FLU-R
# [22] = C. glabrata MMX 7549, Susceptible
# [23] = C. krusei ATCC 14243, Susceptible
# [24] = C. krusei ATCC 96685, Susceptible
# [25] = C. krusei MMX 7125, Susceptible
# [26] = C. krusei MMX 7128, Susceptible
# [27] = C. krusei MMX 7141, Susceptible
# [28] = C. krusei MMX 7155, Susceptible
# [29] = C. krusei MMX 7563, Susceptible
# [30] = C. krusei MMX 9878, MICA-I, VORI-I
# [31] = C. auris MMX 9863, FLU-R, VORI-R
# [32] = C. auris MMX 9864, FLU-R, VORI-R
# [33] = C. auris MMX 9865, FLU-R, VORI-R
# [34] = C. auris MMX 9866, FLU-R, VORI-R
# [35] = C. auris MMX 9867, FLU-R, VORI-R
# [36] = C. auris MMX 9868, FLU-R, VORI-R
# [37] = C. auris MMX 9869, FLU-R, VORI-R
# [38] = C. auris MMX 9870, FLU-R, VORI-R
compound,measurement,setting,value
C[C@@H]1[C@H](O)[C@@H](C)/C=C/C=C/C=C/C=C/C=C/C=C/C=C/[C@H](O[C@@H]2O[C@H](C)[C@@H](O)[C@H](N)[C@@H]2O)C[C@@H]2O[C@](O)(C[C@@H](O)C[C@@H](O)[C@H](O)CC[C@@H](O)C[C@@H](O)CC(=O)O[C@H]1C)C[C@H](O)[C@H]2C(=O)O [AMP B],MIC0,[1]; [6],0.25 µg/mL
same,MIC0,[1]; [7],0.25 µg/mL
same,MIC0,[1]; [8],0.25 µg/mL
same,MIC0,[1]; [9],0.12 µg/mL
same,MIC0,[1]; [10],0.25 µg/mL
same,MIC0,[1]; [11],0.25 µg/mL
same,MIC0,[1]; [12],0.25 µg/mL
same,MIC0,[1]; [13],0.25 µg/mL
same,MIC0,"[1]; C. albicans MMX 7437, FLU-I",0.25 µg/mL
same,MIC0,[1]; [14],0.12 µg/mL
same,MIC0,[2]; [15],0.25 µg/mL
same,MIC0,[2]; [16],0.12 µg/mL
same,MIC0,[2]; [17],0.12 µg/mL
same,MIC0,"[2]; C. glabrata MMX 7093, FLU-R",0.25 µg/mL
same,MIC0,"[2]; C. glabrata MMX 7101, FLU-R",0.25 µg/mL
same,MIC0,[2]; [18],0.25 µg/mL
same,MIC0,[2]; [19],0.25 µg/mL
same,MIC0,[2]; [20],0.25 µg/mL
same,MIC0,[2]; [21],0.25 µg/mL
same,MIC0,[2]; [22],0.25 µg/mL
same,MIC0,"[3]; C. krusei ATCC 6258, MICA-I",0.5 µg/mL
same,MIC0,[3]; [23],0.25 µg/mL
same,MIC0,[3]; [24],0.5 µg/mL
same,MIC0,[3]; [25],0.5 µg/mL
same,MIC0,[3]; [26],0.5 µg/mL
same,MIC0,[3]; [27],0.25 µg/mL
same,MIC0,"[3]; C. krusei MMX 7153, MICA-R",0.5 µg/mL
same,MIC0,[3]; [28],0.25 µg/mL
same,MIC0,[3]; [29],0.5 µg/mL
same,MIC0,[3]; [30],0.5 µg/mL
same,MIC0,"[4]; C. auris MMX 9862, Susceptible",0.25 µg/mL
same,MIC0,[4]; [31],0.12 µg/mL
same,MIC0,[4]; [32],0.25 µg/mL
same,MIC0,[4]; [33],0.25 µg/mL
same,MIC0,[4]; [34],0.5 µg/mL
same,MIC0,[4]; [35],0.5 µg/mL
same,MIC0,[4]; [36],0.25 µg/mL
same,MIC0,[4]; [37],1 µg/mL
same,MIC0,[4]; [38],1 µg/mL
same,MIC0,"[4]; C. auris MMX 9871, Susceptible",1 µg/mL
same,MIC0,[5]; A. flavus ATCC 22546,1 µg/mL
same,MIC0,[5]; A. flavus ATCC 204304,1 µg/mL
same,MIC0,[5]; A. flavus MMX 7935,1 µg/mL
same,MIC0,[5]; A. fumigatus ATCC 204305,1 µg/mL
same,MIC0,[5]; A. fumigatus ATCC MYA-3626,1 µg/mL
same,MIC0,[5]; A. fumigatus MMX 5934,1 µg/mL
same,MIC0,[5]; A. fumigatus MMX 5938,1 µg/mL
same,MIC0,[5]; A. fumigatus MMX 5939,1 µg/mL
same,MIC0,[5]; A. niger ATCC 29508,0.25 µg/mL
same,MIC0,[5]; A. terreus MMX 8229,0.25 µg/mL
C[C@@H](c1ncncc1F)[C@](O)(Cn1cncn1)c1ccc(F)cc1F [VORI],MIC2,[1]; [6],≤0.008 µg/mL
same,MIC2,[1]; [7],≤0.008 µg/mL
same,MIC2,[1]; [8],0.5 µg/mL
same,MIC2,[1]; [9],≤0.008 µg/mL
same,MIC2,[1]; [10],>8 µg/mL
same,MIC2,[1]; [11],≤0.008 µg/mL
same,MIC2,[1]; [12],≤0.008 µg/mL
same,MIC2,[1]; [13],≤0.008 µg/mL
same,MIC2,"[1]; C. albicans MMX 7437, FLU-I",0.12 µg/mL
same,MIC2,[1]; [14],>8 µg/mL
same,MIC2,[2]; [15],0.12 µg/mL
same,MIC2,[2]; [16],0.12 µg/mL
same,MIC2,[2]; [17],0.03 µg/mL
same,MIC2,"[2]; C. glabrata MMX 7093, FLU-R",2 µg/mL
same,MIC2,"[2]; C. glabrata MMX 7101, FLU-R",2 µg/mL
same,MIC2,[2]; [18],0.12 µg/mL
same,MIC2,[2]; [19],0.06 µg/mL
same,MIC2,[2]; [20],1 µg/mL
same,MIC2,[2]; [21],4 µg/mL
same,MIC2,[2]; [22],0.06 µg/mL
same,MIC2,"[3]; C. krusei ATCC 6258, MICA-I",0.12 µg/mL
same,MIC2,[3]; [23],0.06 µg/mL
same,MIC2,[3]; [24],0.5 µg/mL
same,MIC2,[3]; [25],0.25 µg/mL
same,MIC2,[3]; [26],0.12 µg/mL
same,MIC2,[3]; [27],0.12 µg/mL
same,MIC2,"[3]; C. krusei MMX 7153, MICA-R",0.25 µg/mL
same,MIC2,[3]; [28],0.25 µg/mL
same,MIC2,[3]; [29],0.25 µg/mL
same,MIC2,[3]; [30],1 µg/mL
same,MIC2,"[4]; C. auris MMX 9862, Susceptible",0.03 µg/mL
same,MIC2,[4]; [31],>8 µg/mL
same,MIC2,[4]; [32],7 µg/mL
same,MIC2,[4]; [33],8 µg/mL
same,MIC2,[4]; [34],8 µg/mL
same,MIC2,[4]; [35],8 µg/mL
same,MIC2,[4]; [36],>8 µg/mL
same,MIC2,[4]; [37],2 µg/mL
same,MIC2,[4]; [38],4 µg/mL
same,MIC2,"[4]; C. auris MMX 9871, Susceptible",1 µg/mL
same,MIC0,[5]; A. flavus ATCC 22546,1 µg/mL
same,MIC0,[5]; A. flavus ATCC 204304,2 µg/mL
same,MIC0,[5]; A. flavus MMX 7935,0.5 µg/mL
same,MIC0,[5]; A. fumigatus ATCC 204305,0.5 µg/mL
same,MIC0,[5]; A. fumigatus ATCC MYA-3626,0.5 µg/mL
same,MIC0,[5]; A. fumigatus MMX 5934,0.25 µg/mL
same,MIC0,[5]; A. fumigatus MMX 5938,0.25 µg/mL
same,MIC0,[5]; A. fumigatus MMX 5939,7 µg/mL
same,MIC0,[5]; A. niger ATCC 29508,0.5 µg/mL
same,MIC0,[5]; A. terreus MMX 8229,0.25 µg/mL
